The supplement of paper PMC10307832

What was measured:
Assay in all cases: relative viability (nuclei count vs DMSO), 5 days (fraction); higher = more cells survive
201T = system: 201T
How it was run: (§1)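 A single step with final 0.05% Triton X-100, 1% formaldehyde and 1 ug/ml Hoechst fixed the cells and stained nuclei 5 days after treatment. Lung cancer cell lines in 1536-well plates had been treated by pin tool the day after seeding with one drug alone or a fixed anchor-drug dose plus five library-drug doses (not always all listed) in √10 steps, and nuclei were counted on 4× images. Relative viability is the ratio of nuclei in treated wells to nuclei in vehicle wells, taken as the median of duplicate plates.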

COR-L23 = system: COR-L23
How it was run: as §1

ChaGo-K-1 = system: ChaGo-K-1
How it was run: as §1

HARA = system: HARA
How it was run: as §1

HCC-15 = system: HCC-15
How it was run: as §1

HCC-366 = system: HCC-366
How it was run: as §1

HCC-78 = system: HCC-78
How it was run: as §1

LCLC-103H = system: LCLC-103H
How it was run: as §1

LCLC-97TM1 = system: LCLC-97TM1
How it was run: as §1

LOU-NH91 = system: LOU-NH91
How it was run: as §1

NCI-H1355 = system: NCI-H1355
How it was run: as §1

NCI-H1734 = system: NCI-H1734
How it was run: as §1

NCI-H2009 = system: NCI-H2009
How it was run: as §1

NCI-H2126 = system: NCI-H2126
How it was run: as §1

NCI-H441 = system: NCI-H441
How it was run: as §1

NCI-H460 = system: NCI-H460
How it was run: as §1

NCI-H596 = system: NCI-H596
How it was run: as §1

NCI-H647 = system: NCI-H647
How it was run: as §1

NCI-H650 = system: NCI-H650
How it was run: as §1

PC-14 = system: PC-14
How it was run: as §1

SW 900 = system: SW 900
How it was run: as §1

## COCC1(CO)C(=O)C2CCN1CC2 (configuration not stated) [PRIMA-1MET] + COc1cc2c(Oc3ccc(NC(=O)C4(C(=O)Nc5ccc(F)cc5)CC4)cc3F)ccnc2cc1OCCCN1CCOCC1 [Foretinib] (partner 0.25 µM)
201T; first compound 0.2 µM
  relative viability: 1.33
201T; first compound 0.6325 µM
  relative viability: 1.09
201T; first compound 2 µM
  relative viability: 0.97
201T; first compound 6.325 µM
  relative viability: 1.15
201T; first compound 20 µM
  relative viability: 1.08
COR-L23; first compound 0.2 µM
  relative viability: 1.23
COR-L23; first compound 0.6325 µM
  relative viability: 0.956
COR-L23; first compound 2 µM
  relative viability: 0.95
COR-L23; first compound 6.325 µM
  relative viability: 1.06
COR-L23; first compound 20 µM
  relative viability: 0.0732
ChaGo-K-1; first compound 0.2 µM
  relative viability: 1.03
ChaGo-K-1; first compound 0.6325 µM
  relative viability: 0.838
ChaGo-K-1; first compound 2 µM
  relative viability: 0.911
ChaGo-K-1; first compound 6.325 µM
  relative viability: 1.01
ChaGo-K-1; first compound 20 µM
  relative viability: 0.859
HARA; first compound 0.2 µM
  relative viability: 1
HARA; first compound 0.6325 µM
  relative viability: 0.881
HARA; first compound 6.325 µM
  relative viability: 0.742
HARA; first compound 20 µM
  relative viability: 0.704
HCC-15; first compound 0.2 µM
  relative viability: 1.11
HCC-15; first compound 0.6325 µM
  relative viability: 0.986
HCC-15; first compound 2 µM
  relative viability: 1.03
HCC-15; first compound 6.325 µM
  relative viability: 1.02
HCC-15; first compound 20 µM
  relative viability: 0.555
HCC-366; first compound 0.2 µM
  relative viability: 0.84
HCC-366; first compound 0.6325 µM
  relative viability: 0.946
HCC-366; first compound 2 µM
  relative viability: 0.826
HCC-366; first compound 6.325 µM
  relative viability: 0.974
HCC-366; first compound 20 µM
  relative viability: 0.207
HCC-78; first compound 0.2 µM
  relative viability: 0.671
HCC-78; first compound 0.6325 µM
  relative viability: 0.477
HCC-78; first compound 6.325 µM
  relative viability: 0.54
HCC-78; first compound 20 µM
  relative viability: 0.441
LCLC-103H; first compound 0.2 µM
  relative viability: 0.915
LCLC-103H; first compound 0.6325 µM
  relative viability: 0.718
LCLC-103H; first compound 2 µM
  relative viability: 0.698
LCLC-103H; first compound 6.325 µM
  relative viability: 0.726
LCLC-103H; first compound 20 µM
  relative viability: 0.189
LCLC-97TM1; first compound 0.2 µM
  relative viability: 0.915
LCLC-97TM1; first compound 0.6325 µM
  relative viability: 0.909
LCLC-97TM1; first compound 2 µM
  relative viability: 0.926
LCLC-97TM1; first compound 6.325 µM
  relative viability: 0.945
LCLC-97TM1; first compound 20 µM
  relative viability: 0.826
LOU-NH91; first compound 0.2 µM
  relative viability: 1.04
LOU-NH91; first compound 0.6325 µM
  relative viability: 0.992
LOU-NH91; first compound 2 µM
  relative viability: 0.861
LOU-NH91; first compound 6.325 µM
  relative viability: 1
LOU-NH91; first compound 20 µM
  relative viability: 0.8
NCI-H1355; first compound 0.2 µM
  relative viability: 1.02
NCI-H1355; first compound 0.6325 µM
  relative viability: 0.846
NCI-H1355; first compound 2 µM
  relative viability: 1.01
NCI-H1355; first compound 6.325 µM
  relative viability: 1.01
NCI-H1355; first compound 20 µM
  relative viability: 0.956
NCI-H1734; first compound 0.2 µM
  relative viability: 1.04
NCI-H1734; first compound 0.6325 µM
  relative viability: 0.741
NCI-H1734; first compound 2 µM
  relative viability: 0.741
NCI-H1734; first compound 6.325 µM
  relative viability: 0.759
NCI-H1734; first compound 20 µM
  relative viability: 0.0666
NCI-H2009; first compound 0.2 µM
  relative viability: 1.33
NCI-H2009; first compound 0.6325 µM
  relative viability: 1.17
NCI-H2009; first compound 2 µM
  relative viability: 1.22
NCI-H2009; first compound 6.325 µM
  relative viability: 1.22
NCI-H2009; first compound 20 µM
  relative viability: 0.52
NCI-H2126; first compound 0.2 µM
  relative viability: 1.3
NCI-H2126; first compound 0.6325 µM
  relative viability: 0.993
NCI-H2126; first compound 2 µM
  relative viability: 1.22
NCI-H2126; first compound 6.325 µM
  relative viability: 1.23
NCI-H2126; first compound 20 µM
  relative viability: 1.13
NCI-H441; first compound 0.2 µM
  relative viability: 0.954
NCI-H441; first compound 0.6325 µM
  relative viability: 0.908
NCI-H441; first compound 2 µM
  relative viability: 0.988
NCI-H441; first compound 6.325 µM
  relative viability: 1
NCI-H441; first compound 20 µM
  relative viability: 0.496
NCI-H460; first compound 0.2 µM
  relative viability: 1.08
NCI-H460; first compound 0.6325 µM
  relative viability: 0.949
NCI-H460; first compound 2 µM
  relative viability: 0.963
NCI-H460; first compound 6.325 µM
  relative viability: 0.944
NCI-H460; first compound 20 µM
  relative viability: 0.359
NCI-H596; first compound 0.2 µM
  relative viability: 0.91
NCI-H596; first compound 0.6325 µM
  relative viability: 0.924
NCI-H596; first compound 2 µM
  relative viability: 0.697
NCI-H596; first compound 6.325 µM
  relative viability: 0.318
NCI-H596; first compound 20 µM
  relative viability: 0.0971
NCI-H647; first compound 0.2 µM
  relative viability: 1.29
NCI-H647; first compound 0.6325 µM
  relative viability: 0.973
NCI-H647; first compound 2 µM
  relative viability: 1.08
NCI-H647; first compound 6.325 µM
  relative viability: 1.22
NCI-H647; first compound 20 µM
  relative viability: 1.16
NCI-H650; first compound 0.2 µM
  relative viability: 1.34
NCI-H650; first compound 2 µM
  relative viability: 0.917
NCI-H650; first compound 6.325 µM
  relative viability: 1.1
NCI-H650; first compound 20 µM
  relative viability: 0.644
PC-14; first compound 0.2 µM
  relative viability: 1.01
PC-14; first compound 0.6325 µM
  relative viability: 0.87
PC-14; first compound 2 µM
  relative viability: 0.931
PC-14; first compound 6.325 µM
  relative viability: 1.12
PC-14; first compound 20 µM
  relative viability: 0.914
SW 900; first compound 0.2 µM
  relative viability: 0.928
SW 900; first compound 0.6325 µM
  relative viability: 1.13
SW 900; first compound 2 µM
  relative viability: 0.699
SW 900; first compound 6.325 µM
  relative viability: 0.451
SW 900; first compound 20 µM
  relative viability: 0.051
